From ChEMBL document CHEMBL1201862, “PubChem BioAssay data set” (2004)
Activity calls are given as the source filed them.

Columns and labels:
[1] = molecular target: T1, Sentrin-specific protease 6 (Homo sapiens, UniProt Q9GZR1); assay type: functional;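 also: Luminescence-based dose-response confirmatory assay of SENP6 inhibition, following up an ultra-high-throughput screen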
T1 sequence (Q9GZR1 whole entry): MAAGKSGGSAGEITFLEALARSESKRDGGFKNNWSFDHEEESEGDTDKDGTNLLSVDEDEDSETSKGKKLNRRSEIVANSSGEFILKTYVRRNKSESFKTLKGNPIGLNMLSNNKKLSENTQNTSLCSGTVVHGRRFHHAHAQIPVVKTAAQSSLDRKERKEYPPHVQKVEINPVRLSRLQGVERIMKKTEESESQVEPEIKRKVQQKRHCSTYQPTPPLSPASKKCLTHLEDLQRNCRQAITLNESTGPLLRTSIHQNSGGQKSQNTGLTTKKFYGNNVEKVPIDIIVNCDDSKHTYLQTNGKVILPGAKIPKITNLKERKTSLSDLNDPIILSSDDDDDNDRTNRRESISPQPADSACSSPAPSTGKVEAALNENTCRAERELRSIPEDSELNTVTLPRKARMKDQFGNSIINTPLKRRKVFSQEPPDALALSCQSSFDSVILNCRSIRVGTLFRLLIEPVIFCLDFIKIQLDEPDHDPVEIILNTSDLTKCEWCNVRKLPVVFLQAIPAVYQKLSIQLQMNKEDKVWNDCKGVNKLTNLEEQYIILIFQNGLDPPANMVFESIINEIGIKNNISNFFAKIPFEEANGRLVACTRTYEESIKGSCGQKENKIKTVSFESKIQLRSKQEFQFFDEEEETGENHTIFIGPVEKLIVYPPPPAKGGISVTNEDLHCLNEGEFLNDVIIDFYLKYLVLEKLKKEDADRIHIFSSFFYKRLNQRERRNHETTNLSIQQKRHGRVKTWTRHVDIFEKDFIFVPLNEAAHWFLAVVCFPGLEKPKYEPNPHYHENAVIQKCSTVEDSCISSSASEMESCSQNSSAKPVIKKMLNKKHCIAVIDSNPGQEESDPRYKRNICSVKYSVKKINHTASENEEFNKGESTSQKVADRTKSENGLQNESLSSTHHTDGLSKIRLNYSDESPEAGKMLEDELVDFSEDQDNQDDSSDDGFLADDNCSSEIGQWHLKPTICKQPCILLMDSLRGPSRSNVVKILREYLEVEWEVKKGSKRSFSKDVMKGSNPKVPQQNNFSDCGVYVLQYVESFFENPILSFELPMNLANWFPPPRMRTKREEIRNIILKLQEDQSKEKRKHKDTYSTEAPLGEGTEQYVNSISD

Vero = Vero cell cytotoxicity, cytotoxicity control for flavivirus capping enzyme inhibitors (AID 588742); assay type: functional; conditions: Chlorocebus sabaeus
[2] = molecular target: Voltage-gated N-type calcium channel alpha-1B subunit/Amyloid beta A4 precursor protein-binding family A member 1 (Homo sapiens, UniProt Q00975+Q02410); assay type: protein assay
Sequence of Voltage-gated N-type calcium channel alpha-1B subunit/Amyloid beta A4 precursor protein-binding family A member 1 (Q00975 whole entry): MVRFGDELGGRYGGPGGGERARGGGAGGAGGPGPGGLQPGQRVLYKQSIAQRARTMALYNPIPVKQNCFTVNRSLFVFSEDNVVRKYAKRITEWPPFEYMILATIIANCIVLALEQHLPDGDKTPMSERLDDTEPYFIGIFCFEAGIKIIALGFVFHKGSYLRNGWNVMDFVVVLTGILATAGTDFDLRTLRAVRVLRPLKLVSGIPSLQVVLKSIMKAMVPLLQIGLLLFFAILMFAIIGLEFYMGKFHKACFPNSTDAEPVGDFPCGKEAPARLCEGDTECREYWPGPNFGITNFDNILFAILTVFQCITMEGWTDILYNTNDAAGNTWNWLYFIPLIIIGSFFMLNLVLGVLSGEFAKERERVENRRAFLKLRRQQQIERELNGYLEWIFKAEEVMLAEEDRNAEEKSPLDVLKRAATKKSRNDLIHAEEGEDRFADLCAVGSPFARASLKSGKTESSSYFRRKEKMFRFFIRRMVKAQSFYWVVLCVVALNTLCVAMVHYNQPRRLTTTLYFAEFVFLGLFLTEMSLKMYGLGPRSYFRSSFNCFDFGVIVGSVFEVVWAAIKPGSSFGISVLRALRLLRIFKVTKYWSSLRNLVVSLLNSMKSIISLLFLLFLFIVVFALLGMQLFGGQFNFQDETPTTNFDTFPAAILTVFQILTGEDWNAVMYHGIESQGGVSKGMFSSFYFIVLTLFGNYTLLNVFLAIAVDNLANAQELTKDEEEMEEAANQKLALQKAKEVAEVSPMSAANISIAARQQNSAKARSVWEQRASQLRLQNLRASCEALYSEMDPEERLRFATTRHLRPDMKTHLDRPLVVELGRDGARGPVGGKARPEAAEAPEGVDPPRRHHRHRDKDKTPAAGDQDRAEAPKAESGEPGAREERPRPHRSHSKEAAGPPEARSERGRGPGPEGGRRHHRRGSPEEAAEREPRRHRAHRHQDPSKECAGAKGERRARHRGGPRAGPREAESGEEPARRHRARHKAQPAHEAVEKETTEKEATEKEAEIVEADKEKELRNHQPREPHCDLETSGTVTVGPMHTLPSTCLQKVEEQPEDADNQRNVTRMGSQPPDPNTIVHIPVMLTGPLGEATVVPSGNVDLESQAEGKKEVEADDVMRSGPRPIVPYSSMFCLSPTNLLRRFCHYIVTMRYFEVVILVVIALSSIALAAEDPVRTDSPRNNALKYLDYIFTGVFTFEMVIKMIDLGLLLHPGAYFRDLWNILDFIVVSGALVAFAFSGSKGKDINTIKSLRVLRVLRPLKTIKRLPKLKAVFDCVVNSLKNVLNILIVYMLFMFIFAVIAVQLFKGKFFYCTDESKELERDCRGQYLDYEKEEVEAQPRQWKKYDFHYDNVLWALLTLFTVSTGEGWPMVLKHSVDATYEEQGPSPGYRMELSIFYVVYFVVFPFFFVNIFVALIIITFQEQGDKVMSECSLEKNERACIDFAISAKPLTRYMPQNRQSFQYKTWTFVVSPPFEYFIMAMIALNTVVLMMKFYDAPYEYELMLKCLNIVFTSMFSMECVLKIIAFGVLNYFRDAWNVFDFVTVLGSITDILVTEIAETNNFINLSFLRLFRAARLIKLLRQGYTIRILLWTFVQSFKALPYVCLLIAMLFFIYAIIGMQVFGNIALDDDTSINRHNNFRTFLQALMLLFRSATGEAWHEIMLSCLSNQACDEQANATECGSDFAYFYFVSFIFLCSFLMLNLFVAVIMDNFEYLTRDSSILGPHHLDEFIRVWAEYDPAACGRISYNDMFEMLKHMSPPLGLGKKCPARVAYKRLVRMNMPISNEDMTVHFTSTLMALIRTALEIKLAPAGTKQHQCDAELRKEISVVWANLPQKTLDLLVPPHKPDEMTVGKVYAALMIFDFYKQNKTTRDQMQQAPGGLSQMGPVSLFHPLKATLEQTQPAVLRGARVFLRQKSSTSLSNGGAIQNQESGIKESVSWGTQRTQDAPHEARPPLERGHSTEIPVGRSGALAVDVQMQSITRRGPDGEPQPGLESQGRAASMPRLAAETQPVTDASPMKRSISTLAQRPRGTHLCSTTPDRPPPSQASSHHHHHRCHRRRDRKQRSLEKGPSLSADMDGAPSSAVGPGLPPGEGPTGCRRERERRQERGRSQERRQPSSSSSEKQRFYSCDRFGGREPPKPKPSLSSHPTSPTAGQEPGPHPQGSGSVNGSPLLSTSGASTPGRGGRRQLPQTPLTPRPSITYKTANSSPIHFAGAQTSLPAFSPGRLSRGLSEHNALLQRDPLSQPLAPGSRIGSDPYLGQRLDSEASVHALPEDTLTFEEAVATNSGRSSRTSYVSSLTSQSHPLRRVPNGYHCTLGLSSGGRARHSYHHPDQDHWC
Sequence of Voltage-gated N-type calcium channel alpha-1B subunit/Amyloid beta A4 precursor protein-binding family A member 1 (Q02410 whole entry): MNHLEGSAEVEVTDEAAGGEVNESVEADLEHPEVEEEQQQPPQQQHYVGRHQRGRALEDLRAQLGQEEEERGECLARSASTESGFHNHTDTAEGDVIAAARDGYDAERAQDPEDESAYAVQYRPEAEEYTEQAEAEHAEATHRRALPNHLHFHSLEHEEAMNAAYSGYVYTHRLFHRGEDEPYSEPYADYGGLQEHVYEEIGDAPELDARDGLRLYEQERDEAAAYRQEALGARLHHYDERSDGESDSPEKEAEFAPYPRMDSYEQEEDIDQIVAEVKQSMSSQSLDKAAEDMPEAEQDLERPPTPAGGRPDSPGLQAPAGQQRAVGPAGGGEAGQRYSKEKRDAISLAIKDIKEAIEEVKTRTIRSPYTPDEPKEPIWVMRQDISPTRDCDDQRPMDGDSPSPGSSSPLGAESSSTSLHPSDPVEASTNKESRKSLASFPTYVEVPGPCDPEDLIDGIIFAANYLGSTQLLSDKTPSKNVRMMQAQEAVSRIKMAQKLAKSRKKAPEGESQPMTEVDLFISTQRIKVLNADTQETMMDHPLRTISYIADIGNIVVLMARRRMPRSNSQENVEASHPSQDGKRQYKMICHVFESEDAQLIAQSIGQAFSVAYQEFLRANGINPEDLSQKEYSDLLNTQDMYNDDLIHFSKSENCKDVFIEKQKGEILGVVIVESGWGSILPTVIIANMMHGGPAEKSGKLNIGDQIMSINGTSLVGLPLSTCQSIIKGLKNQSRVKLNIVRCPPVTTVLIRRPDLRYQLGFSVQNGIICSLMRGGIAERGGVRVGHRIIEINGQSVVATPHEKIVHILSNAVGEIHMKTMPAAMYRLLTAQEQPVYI

[3] = molecular target: T2, Apoptotic protease-activating factor 1 (Homo sapiens, UniProt O14727); assay: activation of Apaf-1 mediated apoptosis – fluorescent, uHTS hits, dose response (AID 588554); assay type: functional
T2 sequence (O14727 whole entry): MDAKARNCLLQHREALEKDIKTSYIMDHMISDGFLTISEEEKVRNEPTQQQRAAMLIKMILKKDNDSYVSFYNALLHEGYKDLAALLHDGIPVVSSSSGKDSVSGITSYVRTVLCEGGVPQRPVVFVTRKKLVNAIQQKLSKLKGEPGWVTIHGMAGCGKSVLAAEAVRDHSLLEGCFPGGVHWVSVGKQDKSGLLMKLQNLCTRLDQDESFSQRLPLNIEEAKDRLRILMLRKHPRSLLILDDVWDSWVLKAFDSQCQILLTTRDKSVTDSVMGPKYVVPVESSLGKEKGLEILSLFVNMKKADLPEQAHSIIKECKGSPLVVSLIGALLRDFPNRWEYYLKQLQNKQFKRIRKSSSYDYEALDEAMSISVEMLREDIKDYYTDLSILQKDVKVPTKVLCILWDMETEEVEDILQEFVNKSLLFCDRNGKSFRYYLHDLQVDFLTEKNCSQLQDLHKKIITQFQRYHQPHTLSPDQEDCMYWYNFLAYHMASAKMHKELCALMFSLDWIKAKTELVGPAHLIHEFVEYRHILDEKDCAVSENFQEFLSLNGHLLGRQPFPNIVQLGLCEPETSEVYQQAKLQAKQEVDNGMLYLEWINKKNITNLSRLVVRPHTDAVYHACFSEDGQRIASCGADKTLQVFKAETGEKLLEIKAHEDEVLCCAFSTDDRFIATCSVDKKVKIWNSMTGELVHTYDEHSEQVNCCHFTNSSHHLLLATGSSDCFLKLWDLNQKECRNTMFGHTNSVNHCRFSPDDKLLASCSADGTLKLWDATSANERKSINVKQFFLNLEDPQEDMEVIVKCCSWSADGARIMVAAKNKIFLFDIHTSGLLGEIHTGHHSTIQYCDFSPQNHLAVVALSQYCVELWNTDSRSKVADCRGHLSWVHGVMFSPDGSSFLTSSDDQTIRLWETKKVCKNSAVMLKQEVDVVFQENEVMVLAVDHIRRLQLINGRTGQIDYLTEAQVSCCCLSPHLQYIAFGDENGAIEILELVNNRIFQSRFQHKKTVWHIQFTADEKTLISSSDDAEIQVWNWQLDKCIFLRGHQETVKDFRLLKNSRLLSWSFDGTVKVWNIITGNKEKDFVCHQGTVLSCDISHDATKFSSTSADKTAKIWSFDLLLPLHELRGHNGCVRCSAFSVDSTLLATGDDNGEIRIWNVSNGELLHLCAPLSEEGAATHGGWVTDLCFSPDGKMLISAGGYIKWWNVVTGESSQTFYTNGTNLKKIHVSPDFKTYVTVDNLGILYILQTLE

| SMILES | IC50 [1] | CC50 (Vero) | IC50 [2] | EC50 [3] |
| --- | --- | --- | --- | --- |
| COc1ccc(Nc2ccc3c(c2)=NC2(CCCCC2)[N+]=3[O-])cc1 | 6.28 µM (active) | 10.8 µM (active) | – | – |
| COc1ccc(/C=C2\SC(=S)N(CCC(=O)Nc3ccc(C(=O)O)cc3)C2=O)cc1OC | – | – | 7.89 µM (active) | 9.36 µM (active) |
